Results reported in US20190185865A1, “USE OF PROKARYOTIC TRANSCRIPTIONAL ACTIVATORS AS METABOLITE BIOSENSORS IN EUKARYOTIC CELLS” (Danmarks Tekniske Universitet, priority 2016, published 2019).

Target: T1, BenM (Acinetobacter baylyi, UniProt O68014)
T1 construct: expressed in transfected cells; host or cells: Saccharomyces cerevisiae CEN.PK113-5A, chromosomal integration; promoters TDH3p, TEF1p, RNR2p or REV1p
Experiment: CCM-induced GFP expression in yeast strains combining BenM expression cassettes and CYC1p reporter promoter variants (flow cytometry)
Type: cell-based, Saccharomyces cerevisiae
Settings: for FC (+/−CCM): 1.4 mM CCM, 24 h
Source text: Strains, chemicals and media. Saccharomyces cerevisiae CEN.PK102-5B (MATa ura3-52 his3Δ1 leu2-3/112 MAL2-8^c SUC2), CEN.PK113-5A (MATa, trp1 his3Δ1 leu2-3/112 MAL2-8^c SUC2) and CEN.PK113-7D (wild type, MATa MAL2-8^c SUC2) strains were obtained from Peter Kotter (Johann Wolfgang Goethe-University Frankfurt, Germany). In principal any other yeast strains may be used, such as one obtained from public repository EuroScarf. EasyClone plasmids used in this work are described in Jensen, N. B. et al. EasyClone: method for iterative chromosomal integration of multiple genes in Saccharomyces cerevisiae. FEMS Yeast Res. 14, 238-48 (2014). Escherichia coli strain DH5a was used as a host for cloning and plasmid propagation. The chemicals and Pfu TURBO DNA polymerase were commercially obtained (Sigma-Aldrich and Agilent Technologies Inc., respectively). All acids used were >97% in purity. S. cerevisiae cells were grown at 30° C. in synthetic complete medium as well as drop-out media and agar plates were prepared using pre-mixed drop-out powders (Sigma-Aldrich). Mineral medium was freshly prepared as described previously. For all media containing diacids, 1.4 mM of the individual diacids were dissolved in mineral medium and pH adjusted to 4.5 before sterile filtration. For CCM several dilutions were made to examine the performance of the CCM biosensor. For naringenin, mineral medium was supplemented with 0, 0.05, 0.10 or 0.20 mM naringenin, dissolved in ethanol, the final ethanol concentration for each medium was 2% (v/v), and the final pH of the medium was adjusted to 6.0. E. coli cells were grown at 37° C. in Luria-Bertani (LB) medium supplemented with 100 μg/mL ampicillin.
Events were analyzed using FlowJo software (TreeStar Inc.).

[1] = strain MeLS0162, RNR2p-BenM + 249bp_CYC1p:GFP
[2] = strain MeLS0163, RNR2p-BenM + 209bp_CYC1p:GFP
[3] = strain MeLS0164, TDH3p-BenM + 491bp_CYC1p:GFP
[4] = strain MeLS0165, TDH3p-BenM + 272bp_CYC1p:GFP
[5] = strain MeLS0166, TDH3p-BenM + 249bp_CYC1p:GFP
[6] = strain MeLS0167, TDH3p-BenM + 209bp_CYC1p:GFP
[7] = strain MeLS0168, TEF1p-BenM + 491bp_CYC1p_BenO_T1:GFP
[8] = strain MeLS0169, TEF1p-BenM + 249bp_CYC1p_BenO_T1:GFP
[9] = strain MeLS0170, RNR2p-BenM + 491bp_CYC1p_BenO_T1:GFP
[10] = strain MeLS0171, RNR2p-BenM + 249bp_CYC1p_BenO_T1:GFP
[11] = strain MeLS0172, TDH3p-BenM + 491bp_CYC1p_BenO_T1:GFP
[12] = strain MeLS0173, TDH3p-BenM + 249bp_CYC1p_BenO_T1:GFP
[13] = strain MeLS0182, TEF1p-BenM + 272bp_CYC1p_BenO_T2:GFP
[14] = strain MeLS0183, TEF1p-BenM + 272bp_CYC1p_BenO_T1/T2:GFP
[15] = strain MeLS0184, TEF1p-BenM + 249bp_CYC1p_BenO_T2:GFP
[16] = strain MeLS0185, TEF1p-BenM + 249bp_CYC1p_BenO_T1/T2:GFP
[17] = strain MeLS0186, REV1p-BenM + 272bp_CYC1p_BenO_T2:GFP
[18] = strain MeLS0187, REV1p-BenM + 272bp_CYC1p_BenO_T1/T2:GFP
[19] = strain MeLS0188, REV1p-BenM + 249bp_CYC1p_BenO_T2:GFP
[20] = strain MeLS0189, REV1p-BenM + 249bp_CYC1p_BenO_T1/T2:GFP
[21] = strain MeLS0190, TDH3p-BenM + 272bp_CYC1p_BenO_T2:GFP
[22] = strain MeLS0191, TDH3p-BenM + 272bp_CYC1p_BenO_T1/T2:GFP
[23] = strain MeLS0192, TDH3p-BenM + 249bp_CYC1p_BenO_T2:GFP
[24] = strain MeLS0193, TDH3p-BenM + 249bp_CYC1p_BenO_T1/T2:GFP
[25] = strain MeLS0195, RNR2p-BenM + 272bp_CYC1p_BenO_T1/T2:GFP
[26] = strain MeLS0196, RNR2p-BenM + 249bp_CYC1p_BenO_T2:GFP
[27] = strain MeLS0197, RNR2p-BenM + 249bp_CYC1p_BenO_T1/T2:GFP
[28] = strain MeLS0263, TDH3p-BenM + 491bp_CYC1p_BenO_T2:GFP
[29] = strain MeLS0264, TDH3p-BenM + 209bp_CYC1p_BenO_T2:GFP
[30] = strain MeLS0265, RNR2p-BenM + 491bp_CYC1p_BenO_T2:GFP
[31] = strain MeLS0266, RNR2p-BenM + 209bp_CYC1p_BenO_T2:GFP
[32] = strain MeLS0267, TDH3p-BenM + 491bp_CYC1p_BenO_T1/T2:GFP
[33] = strain MeLS0268, TDH3p-BenM + 209bp_CYC1p_BenO_T1/T2:GFP
[34] = strain MeLS0269, RNR2p-BenM + 491bp_CYC1p_BenO_T1/T2:GFP
[35] = strain MelS0194, RNR2p-BenM + 272bp_CYC1p_BenO_T2:GFP

T1 sequence (O68014 whole entry): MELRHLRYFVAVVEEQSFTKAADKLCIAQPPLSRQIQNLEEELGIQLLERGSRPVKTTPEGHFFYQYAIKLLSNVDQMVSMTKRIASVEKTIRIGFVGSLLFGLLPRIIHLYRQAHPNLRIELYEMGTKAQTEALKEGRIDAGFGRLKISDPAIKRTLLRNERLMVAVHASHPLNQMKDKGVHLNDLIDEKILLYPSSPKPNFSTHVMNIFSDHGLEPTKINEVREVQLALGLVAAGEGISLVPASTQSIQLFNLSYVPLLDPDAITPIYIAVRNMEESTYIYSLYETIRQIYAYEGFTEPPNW

## O=C(O)/C=C\C=C/C(=O)O [CCM, cis, cis-muconic acid]
[1]
  Mean fluorescense intensities of GFP (24 h), CCM (1.4 mM): 164
  FC (+/−CCM): 1.121
[2]
  Mean fluorescense intensities of GFP (24 h), CCM (1.4 mM): 164
  FC (+/−CCM): 1.121
[3]
  Mean fluorescense intensities of GFP (24 h), CCM (1.4 mM): 4509
  FC (+/−CCM): 1.126
[4]
  Mean fluorescense intensities of GFP (24 h), CCM (1.4 mM): 216
  FC (+/−CCM): 1.157
[5]
  Mean fluorescense intensities of GFP (24 h), CCM (1.4 mM): 205
  FC (+/−CCM): 1.131
[6]
  Mean fluorescense intensities of GFP (24 h), CCM (1.4 mM): 194
  FC (+/−CCM): 1.09
[7]
  Mean fluorescense intensities of GFP (24 h), CCM (1.4 mM): 20250
  FC (+/−CCM): 1.312
[8]
  Mean fluorescense intensities of GFP (24 h), CCM (1.4 mM): 2913
  FC (+/−CCM): 4.337
[9]
  Mean fluorescense intensities of GFP (24 h), CCM (1.4 mM): 6114
  FC (+/−CCM): 1.089
[10]
  Mean fluorescense intensities of GFP (24 h), CCM (1.4 mM): 290
  FC (+/−CCM): 1.549
[11]
  Mean fluorescense intensities of GFP (24 h), CCM (1.4 mM): 10605
  FC (+/−CCM): 1.538
[12]
  Mean fluorescense intensities of GFP (24 h), CCM (1.4 mM): 3554
  FC (+/−CCM): 4.707
[13]
  Mean fluorescense intensities of GFP (24 h), CCM (1.4 mM): 211
  FC (+/−CCM): 1.155
[14]
  Mean fluorescense intensities of GFP (24 h), CCM (1.4 mM): 511
  FC (+/−CCM): 1.969
[15]
  Mean fluorescense intensities of GFP (24 h), CCM (1.4 mM): 475
  FC (+/−CCM): 1.653
[16]
  Mean fluorescense intensities of GFP (24 h), CCM (1.4 mM): 9992
  FC (+/−CCM): 3.797
[17]
  Mean fluorescense intensities of GFP (24 h), CCM (1.4 mM): 197
  FC (+/−CCM): 1.201
[18]
  Mean fluorescense intensities of GFP (24 h), CCM (1.4 mM): 370
  FC (+/−CCM): 1.789
[19]
  Mean fluorescense intensities of GFP (24 h), CCM (1.4 mM): 194
  FC (+/−CCM): 1.215
[20]
  Mean fluorescense intensities of GFP (24 h), CCM (1.4 mM): 181
  FC (+/−CCM): 1.22
[21]
  Mean fluorescense intensities of GFP (24 h), CCM (1.4 mM): 218
  FC (+/−CCM): 1.088
[22]
  Mean fluorescense intensities of GFP (24 h), CCM (1.4 mM): 691
  FC (+/−CCM): 1.892
[23]
  Mean fluorescense intensities of GFP (24 h), CCM (1.4 mM): 978
  FC (+/−CCM): 1.761
[24]
  Mean fluorescense intensities of GFP (24 h), CCM (1.4 mM): 1630
  FC (+/−CCM): 4.004
[25]
  Mean fluorescense intensities of GFP (24 h), CCM (1.4 mM): 199
  FC (+/−CCM): 1.238
[26]
  Mean fluorescense intensities of GFP (24 h), CCM (1.4 mM): 349
  FC (+/−CCM): 1.575
[27]
  Mean fluorescense intensities of GFP (24 h), CCM (1.4 mM): 256
  FC (+/−CCM): 1.571
[28]
  Mean fluorescense intensities of GFP (24 h), CCM (1.4 mM): 1197
  FC (+/−CCM): 1.898
[29]
  Mean fluorescense intensities of GFP (24 h), CCM (1.4 mM): 527
  FC (+/−CCM): 1.495
[30]
  Mean fluorescense intensities of GFP (24 h), CCM (1.4 mM): 698
  FC (+/−CCM): 1.513
[31]
  Mean fluorescense intensities of GFP (24 h), CCM (1.4 mM): 179
  FC (+/−CCM): 1.072
[32]
  Mean fluorescense intensities of GFP (24 h), CCM (1.4 mM): 2218
  FC (+/−CCM): 2.64
[33]
  Mean fluorescense intensities of GFP (24 h), CCM (1.4 mM): 2172
  FC (+/−CCM): 3.25
[34]
  Mean fluorescense intensities of GFP (24 h), CCM (1.4 mM): 2589
  FC (+/−CCM): 2.005
[35]
  Mean fluorescense intensities of GFP (24 h), CCM (1.4 mM): 258
  FC (+/−CCM): 1.065
wild-type BenM, diacids 1.4 mM, pH 4.5, 24 h
  specificity of GFP induction among diacids tested: induce GFP expression specifically in response to CCM
